One data set concerns BAX, Bcl-2 and Mcl-1. Nature of the data set: Western blot of apoptosis-related proteins Bax, Bcl-2, Mcl-1 in SH-SY5Y cells. It is filed as cell-based, human. The note with it: rotenone alone. The protocol: (§1) SH-SY5Y cells were divided into a treated group treated with ROT (0.5 μM) for 24 hours and an untreated group, followed by culturing in DMSO solvent. Thereafter, the culture was removed, and the cells were divided into hBMSC-CM-treated group, NI-hBMSC-CM-treated group, hADSC-CM-treated group and NI-hADSC-CM-treated group in 50% diluted DMEM, followed by culturing each group in ROT (0.5 μM)-treated and untreated groups, respectively, for 24 hours. FBS was maintained at a concentration of 1% throughout the study. Phase contrast images were taken using an Olympus microscope (CKX41) equipped with a camera. Damaged and depleted suspended cells in the culture and adherent cells isolated by trypsinization were combined and a trypan blue cell counting method was applied. The number of surviving cells was counted using LUNA-II™ (Logos Biosystems, Gyeonggi-do, Republic of Korea) automatic cell counter. Cell count analysis was performed three times and expressed as a percentage (%) of the control.
(§2) After incubation for a total of 48 hours, the cells were scraped using a cell scraper, washed twice with PBS, and then exposed to a cell lysis buffer supplemented with protease inhibitor and phosphatase inhibitor (100 mM Tris-HCl (pH 7.6), 100 mM NaCl, 1% Nonidet P-40, 1% sodium deoxycholate, 0.1% sodium dodecyl sulfate (SDS) and 1% Triton X-100), followed by incubation on ice for 30 minutes. The eluate was centrifuged at 13,200 rpm and at 4° C. for 15 minutes, and the supernatant was collected. The protein concentration was measured using a BCA protein assay kit (Thermo Fisher Scientific, Waltham, MA, USA #23225) according to the manufacturer's instructions.
(§3) Protein (15 μg) was separated on an 8-14% SDS-polyacrylamide gel and transferred to a nitrocellulose membrane (Millipore, Berlington, MA, USA, HATF00010), and the membrane was washed with PBS containing 0.5% (v/v) Tween 20 (PBS-T), followed by blocking with 5% (v/v) non-fat dry milk solution included in the preparation of PBS-T. Then, it was incubated overnight at 4° C. with the primary antibody. […]

Data set [1] concerns tyrosine hydroxylase (TH). The data set is described as follows: Western blot of tyrosine hydroxylase protein expression in SH-SY5Y cells. It is filed as cell-based, human. The note with it: 0.5 μM rotenone alone; FIGS. 3 and 4. The procedure:
as §1, with “Damaged and depleted suspended cells in the culture and adherent cells isolated by trypsinization were combined and a trypan blue cell counting method was applied.” left out
(§4) After incubation for a total of 48 hours, the cells were scraped using a cell scraper, washed twice with PBS, and then exposed to a cell lysis buffer supplemented with protease inhibitor and phosphatase inhibitor (100 mM Tris-HCl (pH 7.6), 100 mM NaCl, 1% Nonidet P-40, 1% sodium deoxycholate, 0.1% sodium dodecyl sulfate (SDS) and 1% Triton X-100), followed by incubation on ice for 30 minutes. […] The protein concentration was measured using a BCA protein assay kit (Thermo Fisher Scientific, Waltham, MA, USA #23225) according to the manufacturer's instructions. […]
For orientation: A western blot detects proteins with antibodies after separation by electrophoresis.

Data set [2] relates to Triton X-100 insoluble alpha-synuclein (p-S129 α-syn, total α-syn). The data set is described as follows: Western blot of Triton X-100 insoluble alpha-synuclein in SH-SY5Y cells. Particulars: ROT-treated group, insoluble fraction. It is filed as cell-based, human. The protocol:
as §1
After 48 hours of experiment, SH-SY5Y cells were lysed in cell lysis buffer containing a protease inhibitor and a phosphatase inhibitor together with the above-described 1% Triton X-100 for 30 minutes. […] The protein concentration was measured using a BCA protein assay kit. […] The same protein load was assessed by the expression level of GAPDH used as an internal control. […]

The nature of data set [3]: Rotenone toxicity, trypan blue cell counting of surviving cells. It is filed as cell-based. Particulars: human, SH-SY5Y neuroblastoma cells, 0.5 μM rotenone. The protocol: The human neuroblastoma cell line, that is, SH-SY5Y (RRID: CVCL 0019; ATCC® CRL-2266) was cultured in DMEM supplemented with 10% FBS and 1% penicillin-streptomycin (Welgene Inc., Gyeonsangbuk-do, Republic of Korea) at 37° C. under a wet condition of 5% CO2/95% air. The mixed culture (passages 15-22) was washed with phosphate-buffered saline (PBS), the cells were isolated with 0.25% trypsin-EDTA solution and then reseeded in DMEM containing 1% FBS at 5×10^4 cells/Ml. Then, after overnight incubation, it was used for experiments. ROT (Sigma R8875) stock was prepared at a concentration of 10 mM in […] (DMSO; Sigma D2650) solvent, stored at −80° C., and used within 6 months. Before starting each experiment, a serum-free DMEM culture was diluted to prepare a ROT stock working solution.
SH-SY5Y cells were divided into a treated group treated with ROT (0.5 μM) for 24 hours and an untreated group, followed by culturing in DMSO solvent. […] The number of surviving cells was counted using LUNA-II™ (Logos Biosystems, Gyeonggi-do, Republic of Korea) automatic cell counter. Cell count analysis was performed three times and expressed as a percentage (%) of the control.

Data set [4] concerns NF—H, β3-tubulin, NeuN, SYP. The data set is described as follows: Western blot of neuron-specific proteins in SH-SY5Y cells. It is filed as cell-based, human. The note with it: rotenone treatment (0.5 μM, 48 hours); FIGS. 13A-13D, 14A-14D. The procedure: as §2
as §3, with “antibody. Thereafter, the cell membrane was exposed to a secondary antibody conjugated to horseradish peroxidase at room temperature (RT) for 2-3 hours, and washed three times with PBS-T. Signals were detected by an enhanced chemiluminescence (ECL) system (Millipore, WBLUR0500) using a LAS 4000 luminescent image analyzer (GE Healthcare, Japan).” for “antibody.”

Data set [5] deals with procaspase-9, 3 and 7, PARP-1. The data set is described as follows: Western blot of caspase proteins and PARP-1 cleavage in SH-SY5Y cells. It is filed as cell-based, human. Particulars: rotenone alone; FIGS. 17A-17D, 18A-18D. The procedure: as §1, with “Damaged and depleted suspended cells in the culture and adherent cells isolated by trypsinization were combined and a trypan blue cell counting method was applied.” left out
as §4

A word on the viability: it is the share of living cells, or the viability signal relative to a control. Read a low viability as more harm to the cells. `C=C(C)[C@H]1Cc2c(ccc3c2O[C@@H]2COc4cc(OC)c(OC)cc4[C@@H]2C3=O)O1` [rotenone]: in the data set on BAX, Bcl-2 and Mcl-1, the Bax/Bcl-2 ratio result is “greatly increased”. Moreover, in the data set on BAX, Bcl-2 and Mcl-1 (FIGS. 15A-15D, 16A-16D), the Bax expression entry was “significantly increased”; the “expression of Bcl-2 and Mcl-1” value is reported as “significantly inhibited”. Also, in data set [1], the “protein expression of tyrosine hydroxylase” value is “decreased”. For the same compound, the “phosphorylated S129 alpha-synuclein/total alpha-synuclein ratio with respect to dimers and monomers” value in data set [2] is listed as “significantly decreased”. The same compound showed a viability at 48 h, 0.5 μM in data set [3] of 55%. Moreover, in data set [4], the “expression of NF—H, β3-tubulin, NeuN and SYP” value was “reduced”. Also, in data set [5], the cleaved-PARP/pro-PARP ratio result is listed as “greatly increased”; the “expression of procaspase-9, 3 and 7” value is “greatly decreased”.

These data come from patent US20240197788A1, “PHARMACEUTICAL COMPOSITION FOR PREVENTING OR TREATING PARKINSON'S DISEASE, AND PREPARATION METHOD THEREOF” (INDUSTRY FOUNDATION OF CHONNAM NATIONAL UNIVERSITY, priority 2021, published 2024).
